Results reported in US20140329682A1, “METHOD OF CONTROLLING WEED IN A SUGAR CANE FIELD” (SUMITOMO CHEMICAL COMPANY, LIMITED, priority 2011, published 2014).

Legend:
Assay type in all cases: in vivo
Amaranthus retroflexus [1] = experiment: Herbicidal activity, spray above weed one week before planting (Example 5); conditions: sprayed above weed three weeks after seeding, 3 cm stem cutting planted one week after treatment, four weeks after treatment
Protocol: (§1) A soil is packed into a plastic pot, and seeds of Amaranthus retroflexus are seeded thereon. Thereafter, the pot is placed in a greenhouse, and the weed is grown.
A 30 cm to 40 cm stem cutting of sugar cane is placed on a wet soil, and germination is stimulated. The stem cutting from which a bud has been grown to about 1 cm is selected, and the length of the stem cutting is adjusted to be 3 cm so that the stem cutting has one node.
(§2) The pot for a test is placed in a greenhouse.

Amaranthus retroflexus [2] = experiment: Herbicidal activity, soil surface spray, insecticide-treated stem cutting (Example 6); conditions: 3 cm stem cutting treated with clothianidin, thiamethoxiam, imidacloprid, dinotefuran, nitenpyram, acetamiprid or thiacloprid, four weeks after treatment
Protocol: A 30 cm to 40 cm stem cutting of sugar cane is placed on a wet soil, and germination is stimulated. The stem cutting from which a bud has grown to about 1 cm is selected, and the length of the stem cutting is adjusted to be 3 cm so that the stem cutting has one node. Clothianidin, thiamethoxiam, imidacloprid, dinotefuran, nitenpyram, acetamiprid or thiacloprid is adhered to the stem cutting. A soil is packed into a plastic pot, and seeds of Amaranthus retroflexus are seeded thereon. The stem cutting of sugar cane treated with clothianidin, thiamethoxiam, imidacloprid, dinotefuran, nitenpyram, acetamiprid or thiacloprid is planted in the soil packed into the pot at a depth of 2 cm. […] Thereafter, the pot for a test is placed in a greenhouse.

Amaranthus retroflexus [3] = experiment: Herbicidal activity, spray above weed before planting, strobilurin-treated stem cutting (Example 9); conditions: sprayed above weed, 3 cm stem cutting treated with kresoxim-methyl, azoxystrobin or another listed strobilurin fungicide planted one week after treatment, four weeks after treatment
Protocol: as §1
A 30 cm to 40 cm stem cutting of sugar cane is placed on a wet soil, and germination is stimulated. The stem cutting from which a bud has grown to about 1 cm is selected, and the length of the stem cutting is adjusted to be 3 cm so that the stem cutting has one node. Kresoxim-methyl, azoxystrobin, trifloxystrobin, fluoxastrobin, picoxystrobin, pyraclostrobin, dimoxystrobin, pyribencarb, metominostrobin, orysastrobin, enestrobin, pyraoxystrobin or pyrametostrobin is adhered to the stem cutting.
as §2

Amaranthus retroflexus [4] = experiment: Herbicidal activity, soil surface spray, metalaxyl-treated stem cutting (Example 12); conditions: 3 cm stem cutting treated with metalaxyl or metalaxyl-M, four weeks after treatment
Protocol: A soil is packed into a plastic pot. Seeds of Amaranthus retroflexus are seeded thereon.

Amaranthus retroflexus [5] = experiment: Herbicidal activity, spray above weed before planting, azole-fungicide-treated stem cutting (Example 11); conditions: sprayed above weed, 3 cm stem cutting treated with azaconazole, bitertanol or another listed azole-type fungicide planted one week after treatment, four weeks after treatment
Protocol: A soil is packed into a plastic pat, and seeds of Amaranthus retroflexus are seeded thereon. Thereafter, the pot is placed in a greenhouse, and the weed is grown.
A 30 cm to 40 cm stem cutting of sugar cane is placed on a wet soil, and germination is stimulated. The stem cutting from which a bud has grown to about 1 cm is selected, and the length of the stem cutting is adjusted to be 3 cm so that the stem cutting has one node.
as §2

Amaranthus retroflexus [6] = experiment: Herbicidal activity, spray above weed before planting, metalaxyl-treated stem cutting (Example 13); conditions: sprayed above weed, 3 cm stem cutting treated with metalaxyl or metalaxyl-M planted one week after treatment, four weeks after treatment
Protocol: A soil is packed into a plastic pot, and seeds of Amaranthus retroflexus are seeded thereon. Thereafter, a pot is placed in a greenhouse, and the weed is grown.
A 30 cm to 40 cm stem cutting of sugar cane is placed on a wet soil, and germination is stimulated. The stem cutting from which a bud has grown to about 1 cm is selected, and the length of the stem cutting is adjusted to be 3 cm so that the stem cutting has one node. Metalaxyl or metalaxyl-M is adhered to the stem cutting.
as §2

Amaranthus retroflexus [7] = experiment: Herbicidal activity, spray above weed before planting, insecticide-treated stem cutting (Example 7); conditions: sprayed above weed, 3 cm stem cutting treated with clothianidin, thiamethoxiam, imidacloprid, dinotefuran, nitenpyram, acetamiprid or thiacloprid planted one week after treatment, four weeks after treatment
Protocol: as §1
A 30 cm to 40 cm stem cutting of sugar cane is placed on a wet soil, and germination is stimulated. The stem cutting from which a bud has grown to about 1 cm is selected, and the length of the stem cutting is adjusted to be 3 cm so that the stem cutting has one node. Clothianidin, thiamethoxiam, imidacloprid, dinotefuran, nitenpyram, acetamiprid or thiacloprid is adhered to the stem cutting.
as §2

Amaranthus retroflexus [8] = experiment: Herbicidal activity, soil surface spray after planting (Example 4); conditions: 3 cm stem cutting, one node, soil surface spray on date of planting, four weeks after treatment
Protocol: A 30 cm to 40 cm stem cutting of sugar cane is placed on a wet soil, and germination is stimulated. The stem cutting from which a bud has grown to about 1 cm is selected, and the length of the stem cutting is adjusted to be 3 cm so that the stem cutting has one node. A soil is packed into a plastic pot, and seeds of Amaranthus retroflexus are seeded thereon. The stem cutting of sugar cane is planted in the soil packed in the pot at a depth of 2 cm. […] Thereafter, the pot for a test is placed in a greenhouse.

Amaranthus retroflexus [9] = experiment: Herbicidal activity, soil surface spray, azole-fungicide-treated stem cutting (Example 10); conditions: 3 cm stem cutting treated with azaconazole, bitertanol or another listed azole-type fungicide, four weeks after treatment
Description: A 30 to 40 cm stem cutting of sugar cane is placed on a wet soil, and germination is stimulated. The stem cutting from which a bud has grown to about 1 cm is selected, and the length of the stem cutting is adjusted to be 3 cm so that the stem cutting has one node. Azaconazole, bitertanol, bromoconazole, cyproconazole, difenoconazole, diniconazole, epoxyconazole, fenbuconazole, fluquinconazole, flusilazole, flutriafol, hexaconazole, imibenconazole, ipconazole, metconazole, myclobutanil, penconazole, propiconazole, prothioconazole, simeconazole, tebuconazole, tetraconazole, triadimenol, triticonazole, fenarimol, nuarimol, pyrifenox, imazalil, oxpoconazole fumarate, pefurazoate, procloraz or triflumizole is adhered to the stem cutting. A soil is packed into a plastic pot, and seeds of Amaranthus retroflexus are seeded thereon. The stem cutting of sugar cane treated with azaconazole, bitertanol, bromoconazole, cyproconazole, difenoconazole, diniconazole, epoxyconazole, fenbuconazole, fluquinconazole, flusilazole, flutriafol, hexaconazole, imibenconazole, ipconazole, metconazole, myclobutanil, penconazole, propiconazole, prothioconazole, simeconazole, tebuconazole, tetraconazole, triadimenol, triticonazole, fenarimol, nuarimol, pyrifenox, imazalil, oxpoconazole fumarate, pefurazoate, procloraz or triflumizole is planted in the soil packed into the pot at a depth of 2 cm. […] Thereafter, the pot for a test is placed in a greenhouse.

Amaranthus retroflexus [10] = experiment: Herbicidal activity, soil surface spray, strobilurin-treated stem cutting (Example 8); conditions: 3 cm stem cutting treated with kresoxim-methyl, azoxystrobin or another listed strobilurin fungicide, four weeks after treatment
Description: A 30 cm to 40 cm stem cutting of sugar cane is placed on a wet soil, and germination is stimulated. The stem cutting from which a bud has grown to about 1 cm is selected, and the length of the stem cutting is adjusted to be 3 cm so that the stem cutting has one node. Kresoxim-methyl, azoxystrobin, trifloxystrobin, fluoxastrobin, picoxystrobin, pyraclostrobin, dimoxystrobin, pyribencarb, metominostrobin, orysastrobin, enestrobin, pyraoxystrobin or pyrametostrobin is adhered to the stem cutting. A soil is packed into a plastic pot, and seeds of Amaranthus retroflexus are seeded thereon. The stem cutting of sugar cane treated with kresoxim-methyl, azoxystrobin, trifloxystrobin, fluoxastrobin, picoxystrobin, pyraclostrobin, dimoxystrobin, pyribencarb, metominostrobin, orysastrobin, enestrobin, pyraoxystrobin or pyrametostrobin is planted in the soil packed into the pot at a depth of 2 cm. […] Thereafter, the pot for a test is placed in a greenhouse.

CS(=O)(=O)NC(=O)c1cc(Oc2ccc(C(F)(F)F)cc2Cl)ccc1[N+](=O)[O-] [fomesafen]
herbicidal activity against Amaranthus retroflexus (Amaranthus retroflexus [1]): the controlling effect on a weed can be confirmed
herbicidal activity against Amaranthus retroflexus (Amaranthus retroflexus [2]): the controlling effect on a weed can be confirmed
herbicidal activity against Amaranthus retroflexus (Amaranthus retroflexus [3]): the controlling effect on a weed can be confirmed
herbicidal activity against Amaranthus retroflexus (Amaranthus retroflexus [4]): the controlling effect on a weed can be confirmed
herbicidal activity against Amaranthus retroflexus (Amaranthus retroflexus [5]): the controlling effect on a weed can be confirmed
herbicidal activity against Amaranthus retroflexus (Amaranthus retroflexus [6]): the controlling effect on a weed can be confirmed
herbicidal activity against Amaranthus retroflexus (Amaranthus retroflexus [7]): the controlling effect on a weed can be confirmed
herbicidal activity against Amaranthus retroflexus (Amaranthus retroflexus [8]): the controlling effect on a weed can be confirmed
herbicidal activity against Amaranthus retroflexus (Amaranthus retroflexus [9]): the control effect on a weed can be confirmed
herbicidal activity against Amaranthus retroflexus (Amaranthus retroflexus [10]): the controlling effect on a weed can be confirmed
